Test results published in the NIST ThermoML archive (doi:10.1021/acs.jced.9b00237).

Assay: xn = mol fraction of the nth substance listed
Details: 100 kPa, Liquid; for viscosity: Concentric cylinders viscometry; for mass density: Vibrating tube method

C[N+](C)(C)CCO.[Cl-] [choline chloride] + Oc1ccccc1
Details | mass density, 293.15 K [kg/m3] | mass density, 303.15 K [kg/m3] | mass density, 313.15 K [kg/m3] | mass density, 323.15 K [kg/m3] | mass density, 333.15 K [kg/m3] | viscosity, 293.15 K [mPa·s] | viscosity, 303.15 K [mPa·s] | viscosity, 313.15 K [mPa·s] | viscosity, 323.15 K [mPa·s] | viscosity, 333.15 K [mPa·s]
x1 = 0.2 | 1093 | 1087 | 1080 | 1073 | 1067 | 39 | 24.67 | 16.69 | 11.83 | 8.825
x1 = 0.25 | 1096 | 1089 | 1083 | 1077 | 1071 | 58.16 | 35.76 | 23.53 | 16.42 | 12.02
